What was measured:
H-2 D^b = H-2 D^b (Mus musculus, UniProt P01899); type: binding
HLA A*6802 = HLA A*6802 (Homo sapiens, UniProt P04439, A269V/D140Y/D185E/E176V/E277Q/E87N/F33Y/G231S/I121R/I166T/I218V/L180W/L300P/L318F/N151K/P208A/P217A/Q86R/R138H/R169H/S129P/T345S/V36M); type: binding
HLA B*5101 = HLA B*5101 (Homo sapiens, UniProt P01889, A329T/A93T/A95T/C349S/D138N/D201E/D98Y/E187L/E204Q/E69T/G107R/I218V/K202T/L105A/L119W/N104I/Q94N/R106L/R155S/R180L/S101N/S121T/S35A/S48A/V306I/V36M/Y195H/Y91F); type: binding
HLA B*3501 = HLA B*3501 (Homo sapiens, UniProt P01889, A329T/A93T/A95T/C349S/D201E/D98Y/E176V/E187L/E204Q/E69T/I218V/K202T/L119I/Q94N/R155S/R180L/S121R/S35A/S48A/T118I/V127L/V306I/V36M/Y140S/Y91F); type: binding
HLA B*0702 = HLA B*0702 (Homo sapiens, UniProt P01889); type: binding; conditions: positional scanning combinatorial 9-mer library; normalized to 1.0 for the best residue at each position
H-2 D^d = H-2 D^d (Mus musculus, UniProt P01900); type: binding
HLA B*5301 = HLA B*5301 (Homo sapiens, UniProt P01889, A329T/A93T/A95T/C349S/D201E/D98Y/E176V/E187L/E204Q/E69T/G107R/I218V/K202T/L105A/L119I/N104I/Q94N/R106L/R155S/R180L/S101N/S121R/S35A/S48A/T118I/V127L/V306I/V36M/Y140S/Y91F); type: binding
HLA B*5802 = HLA B*5802 (Homo sapiens, UniProt P01889, A329T/C349S/D201E/D98Y/E176V/E187L/E204Q/E69T/G107R/I218V/I90N/K202T/L105A/N104I/N87E/Q89R/Q94S/R106L/R155S/R180L/R86G/S101N/S121W/S35A/S48A/V127L/V306I/V36M/Y140S/Y91M); type: binding
HLA A*3001 = HLA A*3001 (Homo sapiens, UniProt P04439, D140H/D185E/E176W/F33S/G80R/H175R/K168Q/R138E/R41S); assay: biochemical; type: binding
HLA A*0201 = HLA A*0201 (Homo sapiens, UniProt P04439, D140Y/D185E/D98H/E176V/E277Q/G131W/G231S/I119V/I121R/I166T/I218V/L300P/L318F/N151K/N90K/P208A/P217A/Q86G/Q94H/R138H/R169H/T345S); conditions: positional scanning combinatorial 9-mer library; normalized to 1.0 for the best residue at each position
HLA B*2705 = HLA B*2705 (Homo sapiens, UniProt P01889, D138H/D201E/E176V/E204Q/G107R/H137Y/K202T/N104T/N87E/Q56L/Q94K/R106L/R155S/R180L/S101D/S121N/S48T/Y140D/Y33H/Y91C); type: binding; conditions: positional scanning combinatorial 9-mer library; normalized to 1.0 for the best residue at each position
HLA B*1501 = HLA B*1501 (Homo sapiens, UniProt P01889, A329T/A93T/A95T/C349S/D201E/D98Y/E187L/E204Q/E69M/E70A/K202T/N87E/Q94N/R155S/R180W/S121R/S35A/S48A/V306I/V36M/Y140S/Y91S); assay: biochemical; type: binding
HLA A*3201 = HLA A*3201 (Homo sapiens, UniProt P04439, A270S/D101S/D185E/E176V/E277Q/F133L/G103R/G107R/G231S/H175R/I121M/I218V/I322F/K168Q/L105A/L300P/L318F/M331R/P208A/P217A/Q94H/R106L/R138Q/S129P/T104I/T323A/T345S/V100E/V321M/V358M); assay: biochemical; type: binding
H-2 K^k = H-2 K^k (Mus musculus, UniProt P04223); type: binding
HLA B*5801 = HLA B*5801 (Homo sapiens, UniProt P01889, A329T/C349S/D201E/D98Y/E176V/E187L/E204Q/E69T/G107R/I218V/I90N/K202T/L105A/L119I/N104I/N87E/Q89R/Q94S/R106L/R155S/R180L/R86G/S101N/S121R/S35A/S48A/T118I/V127L/V306I/V36M/Y140S/Y91M); type: binding
HLA B*1503 = HLA B*1503 (Homo sapiens, UniProt P01889, A329T/A93T/A95T/C349S/D201E/D98Y/E187L/E204Q/K202T/N87E/Q94N/R155S/R180L/S121R/S35A/V306I/V36M/Y140S/Y91S); assay: biochemical; type: binding
HLA B*5401 = HLA B*5401 (Homo sapiens, UniProt P01889, A329T/C349S/D138N/D201E/E176V/E187T/E204Q/E69G/I76V/K202T/L119W/R155S/R180L/S121T/S35A/S48A/V127L/V306I/V36M/Y140L); type: binding
HLA B*0801 = HLA B*0801 (Homo sapiens, UniProt P01889, A93T/A95T/D138N/E176V/E187T/K202T/Q94N/R180D/S35A/V36M/Y33D/Y91F); assay: biochemical; type: binding

H-2 D^d, sequence (P01900 whole entry, looked up): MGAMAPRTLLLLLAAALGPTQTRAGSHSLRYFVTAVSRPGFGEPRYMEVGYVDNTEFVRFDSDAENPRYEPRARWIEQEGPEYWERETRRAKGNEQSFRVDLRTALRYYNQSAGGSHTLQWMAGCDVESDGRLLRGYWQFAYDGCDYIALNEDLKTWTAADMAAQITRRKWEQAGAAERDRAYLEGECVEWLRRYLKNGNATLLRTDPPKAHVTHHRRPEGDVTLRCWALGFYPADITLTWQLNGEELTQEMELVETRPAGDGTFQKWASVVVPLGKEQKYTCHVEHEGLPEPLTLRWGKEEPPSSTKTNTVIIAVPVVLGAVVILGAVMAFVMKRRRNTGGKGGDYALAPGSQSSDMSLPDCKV
H-2 D^b, sequence (P01887 21-119): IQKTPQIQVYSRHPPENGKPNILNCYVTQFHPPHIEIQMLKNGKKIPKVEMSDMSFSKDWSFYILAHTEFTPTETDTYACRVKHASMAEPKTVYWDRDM
H-2 D^b, sequence (P01899 25-362): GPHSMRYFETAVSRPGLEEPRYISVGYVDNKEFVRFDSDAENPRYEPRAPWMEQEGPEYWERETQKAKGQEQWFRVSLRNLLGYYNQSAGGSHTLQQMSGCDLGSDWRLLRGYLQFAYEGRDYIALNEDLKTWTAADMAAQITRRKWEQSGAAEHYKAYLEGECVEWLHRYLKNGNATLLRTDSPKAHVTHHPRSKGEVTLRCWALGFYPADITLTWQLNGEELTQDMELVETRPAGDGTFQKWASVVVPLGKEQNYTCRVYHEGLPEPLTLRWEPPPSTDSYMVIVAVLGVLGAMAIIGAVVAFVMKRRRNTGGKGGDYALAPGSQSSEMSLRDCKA
H-2 K^k, sequence (P01887 21-119): as the sequence (P01887 21-119) above
H-2 K^k, sequence (P04223 22-369): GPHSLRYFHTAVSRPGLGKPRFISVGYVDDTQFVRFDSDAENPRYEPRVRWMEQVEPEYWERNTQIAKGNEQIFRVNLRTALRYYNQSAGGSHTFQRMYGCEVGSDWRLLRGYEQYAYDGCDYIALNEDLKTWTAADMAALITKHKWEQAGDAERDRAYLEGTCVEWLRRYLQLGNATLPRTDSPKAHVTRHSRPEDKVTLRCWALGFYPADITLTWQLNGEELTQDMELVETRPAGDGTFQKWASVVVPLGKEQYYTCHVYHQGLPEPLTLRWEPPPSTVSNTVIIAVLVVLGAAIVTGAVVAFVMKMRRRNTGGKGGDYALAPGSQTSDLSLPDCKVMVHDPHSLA

Sequence	Normalized average relative binding affinity (ARB), H-2 Db (H-2 D^b)	Normalized average relative binding affinity (ARB), HLA A*6802 (HLA A*6802)	Normalized average relative binding affinity (ARB), HLA B*5101 (HLA B*5101)	Normalized average relative binding affinity (ARB), HLA B*3501 (HLA B*3501)	Normalized average relative binding affinity (ARB), HLA B*0702 (HLA B*0702)	Normalized average relative binding affinity (ARB), H-2 Dd (H-2 D^d)	Normalized average relative binding affinity (ARB), HLA B*5301 (HLA B*5301)	Normalized average relative binding affinity (ARB), HLA B*5802 (HLA B*5802)	Normalized average relative binding affinity (ARB), HLA A*3001 (HLA A*3001)	Normalized average relative binding affinity (ARB), HLA A*0201 (HLA A*0201)	Normalized average relative binding affinity (ARB), HLA B*2705 (HLA B*2705)	Normalized average relative binding affinity (ARB), HLA B*1501 (HLA B*1501)	Normalized average relative binding affinity (ARB), HLA A*3201 (HLA A*3201)	Normalized average relative binding affinity (ARB), H-2 Kk (H-2 K^k)	Normalized average relative binding affinity (ARB), HLA B*5801 (HLA B*5801)	Normalized average relative binding affinity (ARB), HLA B*1503 (HLA B*1503)	Normalized average relative binding affinity (ARB), HLA B*5401 (HLA B*5401)	Normalized average relative binding affinity (ARB), HLA B*0801 (HLA B*0801)
XSXXXXXXX [3064.0036]	0.80	0.27	0.10	0.059	0.0043	0.022	0.031	1.0	0.38	0.0092	0.012	0.59	0.21	0.014	1.0	0.13	0.050	0.13
XTXXXXXXX [3064.0037]	0.22	0.63	0.042	0.042	0.014	0.019	0.022	0.79	0.77	0.038	0.0033	0.29	1.0	0.0085	0.71	0.026	0.028	0.038
XVXXXXXXX [3064.0038]	0.20	1.0	0.10	0.062	0.086	0.016	0.10	0.12	1.0	0.098	0.0016	0.39	0.23	0.0062	0.14	0.017	0.024	0.17

Source: publication PMC2248166, “Quantitative peptide binding motifs for 19 human and mouse MHC class I molecules derived using positional scanning combinatorial peptide libraries” (Immunome Research, 2008)
